# Legend:
# [1] = system: mechanical hypersensitivity induced by L5/L6 spinal nerve ligation in rats; test: Spinal nerve ligation (SNL) model of neuropathic pain; type: in vivo, rat; conditions: intravenous route
# Procedure: The SNL model (Kim and Chung 1992) was used to induce chronic neuropathic pain. The rats were anesthetized with isoflurane, the left L5 transverse process was removed, and the L5 and L6 spinal nerves were tightly ligated with 6-0 silk suture. The wound was then closed with internal sutures and external staples. Fourteen days following SNL, baseline, post-injury and post-treatment values for non-noxious mechanical sensitivity were evaluated using 8 Semmes-Weinstein filaments (Stoelting, Wood Dale, Ill., USA) with varying stiffness (0.4, 0.7, 1.2, 2.0, 3.6, 5.5, 8.5, and 15 g) according to the up-down method (Chaplan et al. 1994). Animals were placed on a perforated metallic platform and allowed to acclimate to their surroundings for a minimum of 30 minutes before testing. The mean and standard error of the mean (SEM) were determined for each paw in each treatment group. Since this stimulus is normally not considered painful, significant injury-induced increases in responsiveness in this test are interpreted as a measure of mechanical allodynia. […] Compound (2) was administered by the intravenous route. FIG. 10 summarizes the results of these experiments.
# [2] = system: pruritus induced by compound 48/80 in mice; test: Pruritus model in mice, compound 48/80-induced scratching; type: in vivo, Swiss Webster mice; conditions: inhibition of scratching
# Procedure: (§1) Groups of 10 (and in one case, 11) male Swiss Webster mice (25-30 g) were used. Each animal was weighed and allowed to acclimate for at least one hour in individual, rectangular observation boxes. The tails of mice were immersed for 30 seconds in warm water to dilate tail veins and the animals then received an intravenous injection of either vehicle (saline) or compound (2) (0.01, 0.03, 0.10 and 0.30 mg of free base/kg). Fifteen minutes later, each mouse was given either GNTI dihydrochloride (Tocris) (0.30 mg/kg; 0.25 ml/25 g) or compound 48/80 (Sigma) (50 μg in 0.10 ml saline) subcutaneously behind the neck. The animals were then observed in pairs (occasionally in threes) and the number of hind leg scratching movements directed at the neck was counted for 30 minutes. […]
# [3] = system: pancreatitis-induced abdominal hypersensitivity in rats; test: Rat pancreatitis model (dibutylin dichloride), abdominal hypersensitivity; type: in vivo; conditions: intraperitoneal route
# Procedure: Chronic pancreatic inflammation was induced in rats by intravenous administration of dibutylin dichloride (DBTC, Aldrich Milwaukee, Wis.) dissolved in 100% ethanol at a dose of 8 mg/kg under isofluorane anesthesia (2-3 liters/min, 4%/vol until anesthetized, then 2.5%/vol throughout the procedure. Control animals received the same volume of vehicle (100% ethanol) alone. Pancreatitis pain was assessed by determination of abdominal sensitivity to probing the abdomen of rats with a calibrated von Frey filament (4 g). Rats were allowed to acclimate in suspended wire-mesh cages for 30 min before testing. A response was indicated by the sharp withdrawal of the abdomen, licking of abdominal area, or whole body withdrawal. […] The mean occurrence of withdrawal events in each trial is expressed as the number of responses to 10 applications. Rats without inflammation of the pancreas typically display withdrawal frequencies to probing with von Frey filament of 0-1. The animals were allowed to recover for 6 days after DBTC administration prior to any pharmacological manipulations.
# The number of positive responses, following abdominal probing (out of a possible 10), were recorded at each time point. […] Raw data were analyzed using a two-way repeated measures ANOVA followed by Bonferroni post-tests. […]
# [4] = system: capsaicin-induced ocular pain; test: Capsaicin-induced ocular pain, palpebral opening in rabbits; type: in vivo, albino New Zealand strain rabbits; conditions: 10-30 min. post capsaicin
# [5] = system: pruritus induced by GNTI in mice; test: Pruritus model in mice, GNTI-induced scratching; type: in vivo, Swiss Webster mice; conditions: inhibition of scratching
# Procedure: as §1
# [6] = system: acetic acid-induced writhing in mice; test: Acetic acid-induced writhing assay in mice; type: in vivo, ICR mice; conditions: mice
# Procedure: 12: 525-562; Ramabadran and Bansinath (1986) Pharm. Res. 3: 263-270]. Intraperitoneal administration of dilute acetic acid solution causes a writhing behavior in mice. A writhe is defined as a contraction of the abdominal muscles accompanied by an extension of the forelimbs and elongation of the body. The number of writhes observed in the presence and absence of test compounds is counted to determine the analgesic activity of the compounds.
# Each day a writhing assay was performed, a vehicle control group of mice (n=6-8) that were treated identically to the test group (except that test compound was omitted from the injection dose) was always included and the average total number of writhes in this group used as the absolute reference point defining 0% decrease in pain perception for all other mice receiving a test compound on that day. Specifically, the total number of writhes of each mouse receiving the test compound was converted to % decrease in pain perception according to the following equation:
# [formula] Where Wv is the mean number of writhes in vehicle-treated group and Wc is the number of writhes in compound-treated mouse.
# Male ICR mice, 23-37 grams in weight, were weighed and placed in individual observation chambers (usually a 4000 ml glass beaker) with a fine layer of SANI-CHIPS rodent bedding at the bottom. […] After administration of the compound or vehicle control, mice were returned to their individual observation chambers awaiting the intraperitoneal administration of acetic acid solution. […] and acetic acid injection, a dose corresponding to 10 ml/kg of a 0.6% (v/v) acetic acid solution was then injected into the right lower quadrant of the abdomen. Immediately after the injection, the mouse was returned to its observation chamber and the recording of the number of writhes begun immediately. The number of writhes was counted over a 15-min period starting from the time of acetic acid injection, the data being collected over three separate 5 minute time periods (0-5 min, 5-10 min, and 10-15 min).
# The data were reported as ED50, and Hill coefficient. […] The Hill coefficient is expressed as the arithmetic mean±sem calculated from the values obtained from the animals.
# For dose-response analysis, raw data were converted to % maximum possible effect (% MPE) using the formula: % MPE=((test score−vehicle-treated score)/(0−vehicle-treated score))*100. Raw data were analyzed using a one-way ANOVA followed by Dunnett's post-tests. […] Compounds were administered by the intravenous route.
smiles,measurement,setting,value
"CC(C)C[C@@H](NC(=O)[C@@H](Cc1ccccc1)NC(=O)[C@H](N)Cc1ccccc1)C(=O)N[C@H](CCCCN)C(=O)N1CCC(N)(C(=O)O)CC1 [Compound (2), D-Phe-D-Phe-D-Leu-D-Lys-[ω(4-aminopiperidine-4-carboxylic acid)]-OH]","ED50, attenuation of mechanical hypersensitivity (SNL model)",[1],0.38 mg/kg
same,"Compound 48/80 Model ED50 (mg/kg, iv, 15 min post-dose)",[2],0.08 (0.04-0.2) mg/kg
same,"ED50, attenuation of abdominal hypersensitivity (pancreatitis model)",[3],0.03 mg/kg
same,Mean palpebral opening (% Control),"[4]; Table VII, 10 mg/ml, five animals",82.7 % Control
same,Mean palpebral opening (% Control),"[4]; Table VIII, 1 mg/ml, ten animals",60.5 % Control
same,Mean palpebral opening (% Control),"[4]; Table VIII, 10 mg/ml, ten animals",56.6 % Control
same,Mean palpebral opening (% Control),"[4]; Table VIII, 25 mg/ml, ten animals",75.5 % Control
same,Mean palpebral opening (% Control),"[4]; Table VIII, 50 mg/ml, ten animals",87.5 % Control
same,"GNTI Model ED50 (mg/kg, iv, 15 min post-dose)",[5],0.05 (0.02-0.1) mg/kg
same,dose response in the acetic acid-induced writhing model,"[6]; intravenously, 0.01 mg/kg to 0.3 mg/kg",linear dose response relationship
same,"ED50 (mg/kg, iv, 15 min post-dose)","[6]; iv, 15 min post-dose",0.07 mg/kg
same,% MPE (180 min post-ED90),"[6]; iv, 180 min post-ED90",77 ± 5% MPE
same,% MPE (240 min post-ED90),"[6]; iv, 240 min post-ED90",81 ± 4% MPE
same,% MPE (300 min post-ED90),"[6]; iv, 300 min post-ED90",84 ± 4% MPE

# — US9359399B2, “Synthetic peptide amides” (Cara Therapeutics, Inc., priority 2006, dated 2016)
